# Assay results published in patent US6054435A, “6-O-substituted macrolides having antibacterial activity” (priority 1999, dated 2000).
# How the values were obtained:
# Experiment in all cases: in vitro antibacterial activity (MIC), agar dilution
# Type in all cases: cell-based
# [1] = system: Staphylococcus aureus CMX 553; conditions: organism code FF; BHI agar, 35-37° C., 20 to 24 hours; unit assumed
# In short: (§1)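 Agar dilution on BHI agar with twelve successive compound dilutions; plates inoculated by Steers replicator with 1:100 culture dilutions (1:10 for slow growers such as Streptococcus). MIC is the lowest concentration giving no growth, slight haze or sparse colonies versus a drug-free control.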
# [2] = system: Streptococcus bovis A-5169; conditions: organism code JJ; BHI agar, 35-37° C., 20 to 24 hours; unit assumed
# In short: as §1
# [3] = system: Streptococcus Pneumonia GYR 1171; conditions: organism code YY; BHI agar, 35-37° C., 20 to 24 hours; unit assumed
# In short: as §1
# [4] = system: Staphylococcus aureus 1775; conditions: organism code GG; BHI agar, 35-37° C., 20 to 24 hours; unit assumed
# In short: as §1
# [5] = system: Streptococcus agalactiae CMX 508; conditions: organism code KK; BHI agar, 35-37° C., 20 to 24 hours; unit assumed
# In short: as §1
# Escherichia coli SS = conditions: organism code RR; BHI agar, 35-37° C., 20 to 24 hours; unit assumed
# In short: as §1
# [6] = system: Enterococcus faecium ATCC 8043; conditions: organism code II; BHI agar, 35-37° C., 20 to 24 hours; unit assumed
# In short: as §1
# [7] = system: Streptococcus Pneumonia 5979; conditions: organism code ZZ; BHI agar, 35-37° C., 20 to 24 hours; unit assumed
# In short: as §1
# [8] = system: Streptococcus pyogenes PIU 2548; conditions: organism code NN; BHI agar, 35-37° C., 20 to 24 hours; unit assumed
# In short: as §1
# [9] = system: Mycobacterium smegmatis ATCC 114; conditions: organism code UU; BHI agar, 35-37° C., 20 to 24 hours; unit assumed
# In short: as §1
# [10] = system: Staphylococcus aureus A5177; conditions: organism code BB; BHI agar, 35-37° C., 20 to 24 hours; unit assumed
# In short: as §1
# [11] = system: Streptococcus Pneumonia ATCC6303; conditions: organism code XX; BHI agar, 35-37° C., 20 to 24 hours; unit assumed
# In short: as §1
# [12] = system: Micrococcus luteus ATCC 9341; conditions: organism code OO; BHI agar, 35-37° C., 20 to 24 hours; unit assumed
# In short: (§2)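 Antibacterial MIC determined by agar dilution in BHI agar with twelve successive concentrations; controls comprised compound-free plates and a same-class reference antibiotic. MIC: lowest concentration giving no growth, slight haze or sparsely isolated colonies.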
# [13] = system: Streptococcus pyogenes EES61; conditions: organism code LL; BHI agar, 35-37° C., 20 to 24 hours; unit assumed
# In short: as §1
# [14] = system: Micrococcus luteus ATCC 4698; conditions: organism code PP; BHI agar, 35-37° C., 20 to 24 hours; unit assumed
# In short: as §2
# [15] = system: Nocardia Asteroides ATCC9970; conditions: organism code VV; BHI agar, 35-37° C., 20 to 24 hours; unit assumed
# In short: as §1
# [16] = system: Staphylococcus aureus CMX 642A; conditions: organism code DD; BHI agar, 35-37° C., 20 to 24 hours; unit assumed
# In short: as §1
# Escherichia coli JUHL = conditions: organism code QQ; BHI agar, 35-37° C., 20 to 24 hours; unit assumed
# In short: as §1
# [17] = system: Staphylococcus aureus NCTC10649M; conditions: organism code EE; BHI agar, 35-37° C., 20 to 24 hours; unit assumed
# In short: as §1
# [18] = system: Streptococcus Pneumonia 5649; conditions: organism code ZZA; BHI agar, 35-37° C., 20 to 24 hours; unit assumed
# In short: as §1
# [19] = system: Streptococcus pyogenes 930; conditions: organism code MM; BHI agar, 35-37° C., 20 to 24 hours; unit assumed
# In short: as §1
# Candida albicans CCH 442 = conditions: organism code TT; BHI agar, 35-37° C., 20 to 24 hours; unit assumed
# In short: as §1
# Escherichia coli DC-2 = conditions: organism code SS; BHI agar, 35-37° C., 20 to 24 hours; unit assumed
# In short: as §1
# [20] = system: Staphylococcus epidermidis 3519; conditions: organism code HH; BHI agar, 35-37° C., 20 to 24 hours; unit assumed
# In short: as §1
# [21] = system: Haemophilis Influenzae DILL AMP R; conditions: organism code WW; BHI agar, 35-37° C., 20 to 24 hours; unit assumed
# In short: as §1
# [22] = system: Staphylococcus aureus A-5278; conditions: organism code CC; BHI agar, 35-37° C., 20 to 24 hours; unit assumed
# In short: as §1
# [23] = system: Staphylococcus aureus ATCC 6538P; conditions: organism code AA; BHI agar, 35-37° C., 20 to 24 hours; unit assumed
# In short: as §1
Structure (SMILES),MIC [1],MIC [2],MIC [3],MIC [4],MIC [5],MIC (Escherichia coli SS),MIC [6],MIC [7],MIC [8],MIC [9],MIC [10],MIC [11],MIC [12],MIC [13],MIC [14],MIC [15],MIC [16],MIC (Escherichia coli JUHL),MIC [17],MIC [18],other results
CC[C@H]1OC(=O)[C@H](C)C(=O)[C@H](C)[C@@H](O[C@@H]2O[C@H](C)C[C@H](N(C)C)[C@H]2O)[C@](C)(OC/C=C/c2cncc(Br)c2)C[C@@H](C)C(=O)[C@H](C)[C@H]2NC(=O)O[C@@]21C [Example 40],0.2 mg/L,0.02 mg/L,0.015 mg/L,> 100 mg/L,0.02 mg/L,0.39 mg/L,0.05 mg/L,> 128 mg/L,0.1 mg/L,0.39 mg/L,0.2 mg/L,0.015 mg/L,0.02 mg/L,0.02 mg/L,0.2 mg/L,0.1 mg/L,0.2 mg/L,100 mg/L,0.2 mg/L,0.25 mg/L,MIC [19]: 50 mg/L; MIC (Candida albicans CCH 442): > 100 mg/L; MIC (Escherichia coli DC-2): 50 mg/L; MIC [20]: 0.2 mg/L; MIC [21]: 4 mg/L; MIC [22]: > 100 mg/L; MIC [23]: 0.1 mg/L
CC[C@H]1OC(=O)[C@H](C)C(=O)[C@H](C)[C@@H](O[C@@H]2O[C@H](C)C[C@H](N(C)C)[C@H]2O)[C@](C)(OC/C=C/c2ccc(-c3cncnc3)s2)C[C@@H](C)C(=O)[C@H](C)[C@H]2NC(=O)O[C@@]21C [Example 70],0.1 mg/L,0.01 mg/L,0.015 mg/L,> 100 mg/L,0.02 mg/L,0.78 mg/L,0.05 mg/L,4 mg/L,0.1 mg/L,0.39 mg/L,0.2 mg/L,0.015 mg/L,0.02 mg/L,0.01 mg/L,0.1 mg/L,0.02 mg/L,0.1 mg/L,100 mg/L,0.2 mg/L,0.25 mg/L,MIC [19]: 12.5 mg/L; MIC (Candida albicans CCH 442): > 100 mg/L; MIC (Escherichia coli DC-2): 100 mg/L; MIC [20]: 0.1 mg/L; MIC [21]: 4 mg/L; MIC [22]: > 100 mg/L; MIC [23]: 0.1 mg/L
CC[C@H]1OC(=O)[C@H](C)C(=O)[C@H](C)[C@@H](O[C@@H]2O[C@H](C)C[C@H](N(C)C)[C@H]2O)[C@](C)(OC/C=C/c2nc(-c3cccs3)cs2)C[C@@H](C)C(=O)[C@H](C)[C@H]2NC(=O)O[C@@]21C [Example 67],0.1 mg/L,0.01 mg/L,0.03 mg/L,> 100 mg/L,0.01 mg/L,0.78 mg/L,0.05 mg/L,32 mg/L,0.1 mg/L,0.39 mg/L,0.1 mg/L,0.03 mg/L,0.02 mg/L,0.01 mg/L,0.1 mg/L,0.1 mg/L,0.1 mg/L,> 100 mg/L,0.1 mg/L,0.25 mg/L,MIC [19]: 12.5 mg/L; MIC (Candida albicans CCH 442): > 100 mg/L; MIC (Escherichia coli DC-2): > 100 mg/L; MIC [20]: 0.1 mg/L; MIC [21]: 8 mg/L; MIC [22]: > 100 mg/L; MIC [23]: 0.1 mg/L
CC[C@H]1OC(=O)[C@H](C)C(=O)[C@H](C)[C@@H](O[C@@H]2O[C@H](C)C[C@H](N(C)C)[C@H]2O)[C@](C)(OC/C=C/c2cncc(-c3nccs3)c2)C[C@@H](C)C(=O)[C@H](C)[C@H]2NC(=O)O[C@@]21C [Example 51],0.1 mg/L,0.01 mg/L,≤ 0.004 mg/L,> 100 mg/L,0.01 mg/L,0.2 mg/L,0.05 mg/L,> 128 mg/L,0.2 mg/L,0.39 mg/L,0.05 mg/L,≤ 0.004 mg/L,0.01 mg/L,0.02 mg/L,0.2 mg/L,0.05 mg/L,0.1 mg/L,100 mg/L,0.1 mg/L,0.25 mg/L,MIC [19]: 6.2 mg/L; MIC (Candida albicans CCH 442): > 100 mg/L; MIC (Escherichia coli DC-2): 25 mg/L; MIC [20]: 0.1 mg/L; MIC [21]: 2 mg/L; MIC [22]: > 100 mg/L; MIC [23]: 0.1 mg/L
CC[C@H]1OC(=O)[C@H](C)C(=O)[C@H](C)[C@@H](O[C@@H]2O[C@H](C)C[C@H](N(C)C)[C@H]2O)[C@](C)(OC/C=C/c2ccc(-c3ncccn3)s2)C[C@@H](C)C(=O)[C@H](C)[C@H]2NC(=O)O[C@@]21C [Example 61],0.1 mg/L,0.01 mg/L,0.015 mg/L,> 100 mg/L,0.01 mg/L,0.39 mg/L,0.05 mg/L,8 mg/L,0.1 mg/L,0.39 mg/L,0.1 mg/L,0.015 mg/L,0.01 mg/L,0.01 mg/L,0.05 mg/L,0.05 mg/L,0.1 mg/L,25 mg/L,0.1 mg/L,0.25 mg/L,MIC [19]: 50 mg/L; MIC (Candida albicans CCH 442): > 100 mg/L; MIC (Escherichia coli DC-2): 50 mg/L; MIC [20]: 0.1 mg/L; MIC [21]: 8 mg/L; MIC [22]: > 100 mg/L; MIC [23]: 0.05 mg/L
CC[C@H]1OC(=O)[C@H](C)C(=O)[C@H](C)[C@@H](O[C@@H]2O[C@H](C)C[C@H](N(C)C)[C@H]2O)[C@](C)(OC/C=C/c2ccc3ncc(-c4ccco4)cc3c2)C[C@@H](C)C(=O)[C@H](C)[C@H]2NC(=O)O[C@@]21C [Example 39],0.2 mg/L,0.01 mg/L,0.03 mg/L,> 100 mg/L,0.01 mg/L,0.78 mg/L,0.1 mg/L,2 mg/L,0.2 mg/L,0.39 mg/L,0.2 mg/L,0.06 mg/L,0.02 mg/L,0.01 mg/L,0.2 mg/L,0.1 mg/L,0.2 mg/L,> 100 mg/L,0.2 mg/L,0.25 mg/L,MIC [19]: 6.2 mg/L; MIC (Candida albicans CCH 442): > 100 mg/L; MIC (Escherichia coli DC-2): > 100 mg/L; MIC [20]: 0.2 mg/L; MIC [21]: 4 mg/L; MIC [22]: > 100 mg/L; MIC [23]: 0.2 mg/L
CC[C@H]1OC(=O)[C@H](C)C(=O)[C@H](C)[C@@H](O[C@@H]2O[C@H](C)C[C@H](N(C)C)[C@H]2O)[C@](C)(OCC#Cc2ccc(-c3cc4ccccc4s3)s2)C[C@@H](C)C(=O)[C@H](C)[C@H]2NC(=O)O[C@@]21C [Example 34],0.2 mg/L,0.02 mg/L,0.25 mg/L,12.5 mg/L,0.02 mg/L,1.56 mg/L,0.2 mg/L,8 mg/L,0.39 mg/L,0.39 mg/L,0.2 mg/L,0.25 mg/L,0.02 mg/L,0.02 mg/L,0.2 mg/L,0.39 mg/L,0.39 mg/L,> 100 mg/L,0.2 mg/L,2 mg/L,MIC [19]: 1.56 mg/L; MIC (Candida albicans CCH 442): > 100 mg/L; MIC (Escherichia coli DC-2): > 100 mg/L; MIC [20]: 0.39 mg/L; MIC [21]: 16 mg/L; MIC [22]: 50 mg/L; MIC [23]: 0.39 mg/L
